Assay results as given in patent publication US10696661B2, “Compounds” (Exonate Limited, priority 2015, dated 2020).

Assays:
[1] = system: VEGF165b and VEGF165 protein in retinal pigmented epithelial cells; experiment: VEGF isoform specific ELISA in retinal pigmented epithelial cells; type: cell-based, human; conditions: relative to DMSO control, FIG. 3
Procedure: 96-well clear microplate (high sensitivity thermo immulon or costar 9018) were coated with 100 μL of 10 μg/ml VEGFxxxb or 0.25 μg/ml anti-hVEGF165a per well. The plate was sealed with parafilm and incubated overnight on the shaker at room temp. Each well was aspirated and washed with Wash Buffer (200 μl PBS-Tween 0.05%), two times for a total of three washes. After the last wash, remaining Wash Buffer was removed by inverting the plate and blotting it against clean paper towels. Plates were blocked by adding 100 μl of Reagent Diluent (1% BSA/PBS) to each well and incubated at room temp on a shaker for 2 hours. The aspiration/wash step was repeated. 100 μL of standards or samples in 1% BSA/PBS were added to each well, covered with parafilm and incubated 2 hours at room temperature. The aspiration/wash was repeated and 100 μL of 100 ng/ml Detection Antibody (BAF293), diluted in Reagent Diluent, was added to each well which were covered with parafilm and incubated 2 hours at room temp. The aspiration/wash was repeated and 100 μL of the working dilution of Streptavidin-HRP (1:200 dilution) was added to each well. […] The optical density of each well was measured immediately, using a microplate reader set to 450 nm.
To determine whether these compounds could switch splicing of VEGF isoforms, VEGF was measured in retinal pigmented epithelial cells by isoform specific ELISA.

[2] = system: laser-induced choroidal neovascularisation (CNV); experiment: Laser-induced choroidal neovascularisation (CNV) in mice, topical eye drops; type: in vivo; conditions: mouse, eye drop, FIG. 4-7
Procedure: 6-8 week-old female C57/B6 mice were anesthetized with an intraperitoneal injection of a mixture of 50 mg/kg ketamine and 0.5 mg/kg medetomidine. The pupils were immediately dilated by topical (eyedrop) application with a dilator such as 5% phenylephrine hydrochloride and 1% tropicamide. Four photocoagulation lesions were delivered with a green Merilas 532a laser (450 mW, 130 ms) between the “large” retinal vessels in clear space with no vessels in a peripapillary distribution at a distance of 1-2 disc-diameters in each eye. Only clean laser lesions with a subretinal bubble at the time of treatment were included in the study. Immediately following laser photocoagulation the animals were given topical eye drops of candidate compounds twice daily (10 μl, eyes held for 30 seconds to prevent animal wiping drop away).
After one week, mice were anesthetized with an intraperitoneal injection of a mixture of 50 mg/kg ketamine and 0.5 mg/kg medetomidine. The pupils were immediately dilated by topical (eyedrop) application with a dilator such as 5% phenylephrine hydrochloride and 1% tropicamide. Mice were administered an intraperitoneal injection of sodium fluorescein (10%). Phase contrast and green fluorescent fundus images were taken with an angiography microscope and camera with each lesion in focus. […]

VEGF165b and VEGF165 = conditions: cited from earlier work
[3] = system: VEGF-A165a / VEGF-A165b mRNA in primary RPE cells and ARPE-19 cells; experiment: qRT-PCR and conventional PCR of VEGF-A alternative splicing; type: cell-based, human; conditions: FIGS. 8 and 9
From the text: Primary human retinal epithelial cells were lysed in Trizol reagent and mRNA was extracted using the method of Chomczynski and Sacchi, or using an RNeasy RNA extraction kit (Qiagen, UK). mRNA was reverse transcribed using Thermoscript reverse transcriptase (Fisher Scientific, UK). The cDNA was amplified using primers designed to amplify the region spanning the proximal and distal splice sites in human VEGF-A165a and VEGF-A165b, to amplify both isoforms and differentiate between them due to the fact that the exon 8b-containing isoform is 66-bp shorter than the exon 8a-containing isoform. The primers used were; 5′-[…]-3′ (SEQ ID NO:2) and 5′-[…]-3′ (SEQ ID NO:3) with the following conditions; 96° C. for 2 min followed by 45 cycles at 96° C.-30 s, 60° C.-30 s and 72° C.-30 s. The PCR mix consisted of DNA: 200 ng, MgCl2 0.25 mM, Primer each […], Taq polymerase 1 unit and dH2O up to 25 μl. Control plasmid concentration: VEGF165a 500 ng and VEGF165b 1 μg. PCR products were run on 3% agarose gels containing 0.5 μg/ml ethidium bromide.
RNA was isolated and reverse transcribed as described above. Quantitative PCR (qPCR) was performed with a LightCycler 480 (Roche) q-PCR machine. The qPCR mix included PCR-grade dH2O 3 PCR Primer (1 μM) 2 μl. […]
VEGF-A alternative splicing was further measured in retinal pigmented epithelial cells by qRT-PCR and conventional PCR.

neovascular AMD = conditions: treated monthly, 0.5 mg, at one year; cited from earlier work

Molecule: O=C(Nc1cc(C(F)(F)F)ccc1N1CCN(Cc2cocn2)CC1)c1ccc(-c2ccncc2)o1 [Compound 17, N-(2-(4-(oxazol-4-ylmethyl)piperazin-1-yl)-5-(trifluoromethyl)phenyl)-5-(pyridin-4-yl)furan-2-carboxamide]
- VEGF165b protein [1]: increase in VEGF165b
- VEGF165 protein [1]: not VEGF165 protein
- anti-angiogenic activity on lesion size / efficacy compared with reference compound ([2]; listed as N-(2-(4-(oxazol-4-ylmethyl)piperazin-1-yl)-5-(trifluoromethyl)phenyl)-5-(pyridin)): same efficacy
- anti-angiogenic activity on lesion size / efficacy compared with reference compound ([2]; listed as compound 17): same anti-angiogenic activity on lesion size and the same efficacy as reference compounds

Molecule: bevicizumab (Avastin): an anti-VEGF antibody from which Lucentis was derived
- binding potency to VEGF165b versus VEGF165 (VEGF165b and VEGF165): equal potency

Molecule: O=C(Nc1cc(C(F)(F)F)ccc1N1CCN(Cc2cc[nH]n2)CC1)c1ccc(C2CCOCC2)o1 [Compound 14, N-(2-(4-((1H-pyrazol-3-yl)methyl)piperazin-1-yl)-5-(trifluoromethyl)-phenyl)-5-(tetrahydro-2H-pyran-4-yl)furan-2-carboxamide]
- VEGF-A165a/VEGF165b mRNA isoform expression ([3]; endothelial cells (figure legend)): decrease
- levels of VEGF165b relative to VEGF165 RNA ([3]; primary RPE cells and ARPE-19 cells): switched the levels of VEGF165b relative to VEGF165 RNA by a decrease in VEGF165

B1: Lucentis: a novel humanized anti-VEGF antibody fragment (antibody, chains of the INN, looked up, V domains shown)
VH: EVQLVESGGGLVQPGGSLRLSCAASGYDFTHYGMNWVRQAPGKGLEWVGWINTYTGEPTYAADFKRRFTFSLDTSKSTAYLQMNSLRAEDTAVYYCAKYPYYYGTSHWYFDVWGQGTLVTVSS
VL: DIQLTQSPSSLSASVGDRVTITCSASQDISNYLNWYQQKPGKAPKVLIYFTSSLHSGVPSRFSGSGSGTDFTLTISSLQPEDFATYYCQQYSTVPWTFGQGTKVEIK
modifications: Fab
notes: a novel humanized anti-VEGF antibody fragment
- patients who maintained visual acuity (loss of <15 letters) (neovascular AMD): approximately 95%
- patients with improved vision (gain of ≥15 letters) (neovascular AMD): ≤ 40%
